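Five compound concentrations were applied to cells in 96-well plates for 48 hours; endpoints were derived by simple linear interpolation of the resulting dose-response curve. TGI is the concentration that stops growth completely.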
Columns and labels:
Test in all cases: growth of human tumour cells (NCI), 48 h
786-0 renal = tested on: 786-0 renal
A498 renal = tested on: A498 renal
COLO 205 colon = tested on: COLO 205 colon
HCT-15 colon = tested on: HCT-15 colon
HL-60(TB) leukemia = tested on: HL-60(TB) leukemia
KM12 colon = tested on: KM12 colon
LOX IMVI melanoma = tested on: LOX IMVI melanoma
M14 melanoma = tested on: M14 melanoma
MCF7 breast = tested on: MCF7 breast
MDA-MB-231 breast = tested on: MDA-MB-231 breast
RXF 393 renal = tested on: RXF 393 renal
SF-295 CNS = tested on: SF-295 CNS
SK-MEL-28 melanoma = tested on: SK-MEL-28 melanoma
T-47D breast = tested on: T-47D breast
DU-145 prostate = tested on: DU-145 prostate

C[C@@H]1CCC2[C@@H](C)[C@@H](OCCO[C@H]3OC4O[C@@]5(C)CCC6[C@H](C)CCC([C@H]3C)[C@@]46OO5)OC3O[C@@]4(C)CCC1[C@]32OO4 (stereo partly drawn) was tested, and the TGI (786-0 renal) was greater than 100 µM, the TGI (A498 renal) was greater than 77.1 µM and the TGI (COLO 205 colon) was 0.304 µM. For the same compound, the TGI (HCT-15 colon) was greater than 100 µM, the TGI (HL-60(TB) leukemia) was greater than 100 µM and the TGI (KM12 colon) was greater than 100 µM. It also gave a TGI (LOX IMVI melanoma) greater than 40.5 µM, a TGI (M14 melanoma) greater than 100 µM and a TGI (MCF7 breast) greater than 42.3 µM. It also gave a TGI (MDA-MB-231 breast) greater than 66.2 µM, a TGI (RXF 393 renal) greater than 100 µM and a TGI (SF-295 CNS) greater than 100 µM. It also gave a TGI (SK-MEL-28 melanoma) greater than 100 µM and a TGI (T-47D breast) greater than 100 µM.
CC1C[C@]2(C)C(=O)Nc3ccccc3[C@@H]2Nc2ccccc21 (stereo partly drawn) was tested, and the TGI (786-0 renal) was 45.2 µM, the TGI (A498 renal) was 53.4 µM and the TGI (COLO 205 colon) was 34 µM. It also gave a TGI (DU-145 prostate) greater than 100 µM, a TGI (HCT-15 colon) greater than 100 µM and a TGI (HL-60(TB) leukemia) of 61 µM. For the same compound, the TGI (KM12 colon) was 39.1 µM, the TGI (LOX IMVI melanoma) was 30.8 µM and the TGI (M14 melanoma) was 55.3 µM. The TGI (MCF7 breast) was 84.9 µM, the TGI (MDA-MB-231 breast) was 36 µM and the TGI (RXF 393 renal) was 77.9 µM. The TGI (SF-295 CNS) was greater than 100 µM, the TGI (SK-MEL-28 melanoma) was 95.5 µM and the TGI (T-47D breast) was greater than 100 µM.
CC#C[P+](c1ccccc1)(c1ccccc1)c1ccccc1 showed a TGI (786-0 renal) of 10.7 µM, a TGI (A498 renal) greater than 100 µM and a TGI (COLO 205 colon) of 2.77 µM. For the same compound, the TGI (HCT-15 colon) was 35.8 µM, the TGI (HL-60(TB) leukemia) was 13.9 µM and the TGI (KM12 colon) was 11.3 µM. For the same compound, the TGI (LOX IMVI melanoma) was 6.75 µM, the TGI (M14 melanoma) was 5.78 µM and the TGI (RXF 393 renal) was 18.9 µM. The TGI (SF-295 CNS) was 9.15 µM and the TGI (SK-MEL-28 melanoma) was 25 µM.
CCSc1[nH]c(Nc2nc(-c3ccccc3)n(-c3ccccc3)n2)c(C(N)=O)c1C(N)=O was tested, and the TGI (786-0 renal) was greater than 10 µM, the TGI (COLO 205 colon) was greater than 10 µM and the TGI (DU-145 prostate) was greater than 10 µM. For the same compound, the TGI (HCT-15 colon) was greater than 10 µM, the TGI (HL-60(TB) leukemia) was greater than 10 µM and the TGI (KM12 colon) was greater than 10 µM. It also gave a TGI (LOX IMVI melanoma) greater than 10 µM, a TGI (M14 melanoma) greater than 10 µM and a TGI (MCF7 breast) greater than 10 µM. For the same compound, the TGI (MDA-MB-231 breast) was greater than 10 µM, the TGI (RXF 393 renal) was greater than 10 µM and the TGI (SF-295 CNS) was greater than 10 µM. For the same compound, the TGI (SK-MEL-28 melanoma) was greater than 10 µM and the TGI (T-47D breast) was greater than 10 µM.
In the case of CC(=C\c1ccccc1)/C=C(\C#N)C(N)=O, the TGI (786-0 renal) is reported as greater than 10 µM, the TGI (A498 renal) is reported as greater than 10 µM and the TGI (COLO 205 colon) is reported as greater than 10 µM. For the same compound, the TGI (DU-145 prostate) was greater than 10 µM, the TGI (HCT-15 colon) was greater than 10 µM and the TGI (KM12 colon) was greater than 10 µM. It also gave a TGI (LOX IMVI melanoma) greater than 10 µM, a TGI (M14 melanoma) greater than 10 µM and a TGI (MCF7 breast) greater than 10 µM. It also gave a TGI (MDA-MB-231 breast) greater than 10 µM, a TGI (RXF 393 renal) greater than 10 µM and a TGI (SF-295 CNS) greater than 10 µM. It also gave a TGI (SK-MEL-28 melanoma) greater than 10 µM and a TGI (T-47D breast) greater than 10 µM.
Compound CCOC(=O)NC1CN2CCC1CC2 (stereo not drawn) has a TGI (786-0 renal) greater than 100 µM, a TGI (A498 renal) greater than 100 µM and a TGI (COLO 205 colon) greater than 100 µM. It also gave a TGI (DU-145 prostate) greater than 100 µM, a TGI (HCT-15 colon) greater than 100 µM and a TGI (HL-60(TB) leukemia) greater than 100 µM. For the same compound, the TGI (KM12 colon) was greater than 100 µM, the TGI (LOX IMVI melanoma) was greater than 100 µM and the TGI (M14 melanoma) was greater than 100 µM. It also gave a TGI (MDA-MB-231 breast) greater than 100 µM, a TGI (RXF 393 renal) greater than 100 µM and a TGI (SF-295 CNS) greater than 100 µM. The TGI (SK-MEL-28 melanoma) was greater than 100 µM and the TGI (T-47D breast) was greater than 100 µM.
With CC(C)(C)[Si](C)(C)OC1/C(=C/C#N)C(n2ccc(=O)[nH]c2=O)OC1CO (stereo not drawn) the TGI (786-0 renal) was greater than 100 µM, the TGI (A498 renal) was greater than 100 µM and the TGI (COLO 205 colon) was greater than 100 µM. For the same compound, the TGI (DU-145 prostate) was greater than 100 µM, the TGI (KM12 colon) was greater than 100 µM and the TGI (M14 melanoma) was greater than 100 µM. The TGI (MCF7 breast) was greater than 100 µM, the TGI (MDA-MB-231 breast) was greater than 100 µM and the TGI (RXF 393 renal) was greater than 100 µM. The TGI (SF-295 CNS) was greater than 100 µM, the TGI (SK-MEL-28 melanoma) was greater than 100 µM and the TGI (T-47D breast) was greater than 100 µM.
In the case of CCOC(=O)c1ccc(NC(=O)O/N=C(/Cl)CCl)cc1, the TGI (786-0 renal) is reported as greater than 100 µM, the TGI (A498 renal) is reported as greater than 100 µM and the TGI (COLO 205 colon) is reported as greater than 100 µM. The TGI (DU-145 prostate) was greater than 100 µM, the TGI (HCT-15 colon) was greater than 100 µM and the TGI (HL-60(TB) leukemia) was 68.7 µM. The TGI (KM12 colon) was greater than 100 µM, the TGI (LOX IMVI melanoma) was greater than 100 µM and the TGI (MCF7 breast) was 76 µM. For the same compound, the TGI (MDA-MB-231 breast) was greater than 100 µM, the TGI (SF-295 CNS) was greater than 100 µM and the TGI (SK-MEL-28 melanoma) was greater than 100 µM. For the same compound, the TGI (T-47D breast) was greater than 100 µM.
Compound COc1ccc(C(OC(C)=O)C2C(=C(C#N)C#N)c3ccccc3C2=C(C#N)C#N)cc1 (stereo not drawn) has a TGI (786-0 renal) greater than 100 µM, a TGI (A498 renal) of 58.6 µM and a TGI (DU-145 prostate) greater than 100 µM. It also gave a TGI (HCT-15 colon) greater than 100 µM, a TGI (HL-60(TB) leukemia) of 41.9 µM and a TGI (KM12 colon) greater than 100 µM. For the same compound, the TGI (LOX IMVI melanoma) was greater than 100 µM, the TGI (M14 melanoma) was greater than 100 µM and the TGI (MCF7 breast) was greater than 100 µM. For the same compound, the TGI (MDA-MB-231 breast) was greater than 100 µM, the TGI (RXF 393 renal) was greater than 100 µM and the TGI (SF-295 CNS) was 64.6 µM. For the same compound, the TGI (SK-MEL-28 melanoma) was greater than 100 µM and the TGI (T-47D breast) was greater than 100 µM.
With CC(C)C1=C(Cc2ccccc2)C(=O)O/C1=C\c1cc(Cl)c(O)c(Cl)c1 the TGI (786-0 renal) was 32.1 µM, the TGI (A498 renal) was 53.1 µM and the TGI (COLO 205 colon) was 35.3 µM. For the same compound, the TGI (DU-145 prostate) was 30.3 µM, the TGI (HCT-15 colon) was 39.7 µM and the TGI (HL-60(TB) leukemia) was 41.7 µM. The TGI (KM12 colon) was 35.1 µM, the TGI (LOX IMVI melanoma) was 34.8 µM and the TGI (M14 melanoma) was 35.6 µM. For the same compound, the TGI (MCF7 breast) was 83.4 µM, the TGI (MDA-MB-231 breast) was 33.8 µM and the TGI (RXF 393 renal) was 30.5 µM. The TGI (SF-295 CNS) was 30.8 µM and the TGI (SK-MEL-28 melanoma) was 35.9 µM.
In the case of O=C1/C(=C/c2ccccc2)NC(=S)N1CN1CCOCC1, the TGI (786-0 renal) is reported as greater than 100 µM, the TGI (A498 renal) is reported as greater than 100 µM and the TGI (COLO 205 colon) is reported as greater than 100 µM. For the same compound, the TGI (DU-145 prostate) was greater than 100 µM, the TGI (HCT-15 colon) was greater than 100 µM and the TGI (KM12 colon) was greater than 100 µM. It also gave a TGI (LOX IMVI melanoma) greater than 100 µM, a TGI (M14 melanoma) greater than 100 µM and a TGI (MCF7 breast) greater than 100 µM. For the same compound, the TGI (MDA-MB-231 breast) was greater than 100 µM, the TGI (SF-295 CNS) was greater than 100 µM and the TGI (SK-MEL-28 melanoma) was greater than 100 µM.
CCOP(=O)(O)C(C)(C)NC gave a TGI (786-0 renal) greater than 100 µM, a TGI (A498 renal) greater than 100 µM and a TGI (COLO 205 colon) greater than 100 µM. The TGI (DU-145 prostate) was greater than 100 µM, the TGI (HCT-15 colon) was greater than 100 µM and the TGI (HL-60(TB) leukemia) was greater than 100 µM. It also gave a TGI (KM12 colon) greater than 100 µM, a TGI (LOX IMVI melanoma) greater than 100 µM and a TGI (M14 melanoma) greater than 100 µM. For the same compound, the TGI (MDA-MB-231 breast) was greater than 100 µM, the TGI (RXF 393 renal) was greater than 100 µM and the TGI (SF-295 CNS) was greater than 100 µM. It also gave a TGI (SK-MEL-28 melanoma) greater than 100 µM and a TGI (T-47D breast) greater than 100 µM.
For Cc1cc(OCc2nnc3n2N=C(c2cc(F)c(Cl)cc2Cl)/C(=C/c2ccc(Cl)cc2)S3)ccc1Cl, the TGI (786-0 renal) was greater than 100 µM, the TGI (A498 renal) was 45.9 µM and the TGI (DU-145 prostate) was 36.6 µM. The TGI (HCT-15 colon) was 63.4 µM, the TGI (HL-60(TB) leukemia) was 21.3 µM and the TGI (KM12 colon) was 60.2 µM. The TGI (LOX IMVI melanoma) was 50.1 µM, the TGI (M14 melanoma) was 65.5 µM and the TGI (MCF7 breast) was 87.9 µM. The TGI (MDA-MB-231 breast) was greater than 100 µM, the TGI (RXF 393 renal) was 39.4 µM and the TGI (SF-295 CNS) was greater than 100 µM. The TGI (SK-MEL-28 melanoma) was 54.9 µM and the TGI (T-47D breast) was greater than 100 µM.
In the case of O=C(O)c1cccnc1, the TGI (786-0 renal) is reported as greater than 100 µM, the TGI (COLO 205 colon) is reported as greater than 100 µM and the TGI (DU-145 prostate) is reported as greater than 100 µM. It also gave a TGI (HCT-15 colon) greater than 100 µM, a TGI (HL-60(TB) leukemia) greater than 100 µM and a TGI (KM12 colon) greater than 100 µM. For the same compound, the TGI (LOX IMVI melanoma) was greater than 100 µM, the TGI (M14 melanoma) was greater than 100 µM and the TGI (MCF7 breast) was greater than 100 µM. For the same compound, the TGI (MDA-MB-231 breast) was greater than 100 µM, the TGI (SF-295 CNS) was greater than 100 µM and the TGI (SK-MEL-28 melanoma) was greater than 100 µM. The TGI (T-47D breast) was greater than 100 µM.

— PubChem BioAssay (NCI)
